Reference: ChEMBL document CHEMBL5137093, “Improving Drug Delivery While Tailoring Prodrug Activation to Modulate Cmax and Cmin by Optimization of (Carbonyl)oxyalkyl Linker-Based Prodrugs of Atazanavir” (J Med Chem, 2022)

Assays:
[1] = Aqueous solubility of compound at pH 1 by UPLC analysis; assay type: physicochemical; details: buffer
[2] = Ratio of Cmax/Cmin of Atazanavir in Sprague-Dawley rat at 30 ml/kg,po measured after 24 hrs by UPLC-MS/MS analysis; assay type: ADME; details: in vivo
[3] = Cmax in Sprague-Dawley rat at 30 ml/kg,po measured upto 24 hrs by UPLC-MS/MS analysis; assay type: ADME; parameters: time < 24 hrs, dose 30 ml/kg, route po; details: in vivo
[4] = AUClast in Sprague-Dawley rat at 3 ml/kg,po measured upto 24 hrs by UPLC-MS/MS analysis; assay type: ADME; parameters: time < 24 hrs, dose 3 ml/kg, route po; details: Sprague-Dawley, in vivo, 3 ml/kg
[5] = Fold ratio of total AUC of Atazanavir in Sprague-Dawley rat at 30 ml/kg,po measured upto 24 hrs by UPLC-MS/MS analysis; assay type: ADME; details: in vivo
[6] = Volume of distribution at steady state in Sprague-Dawley rat at 1 ml/kg,iv measured upto 24 hrs by UPLC-MS/MS analysis; assay type: ADME; details: in vivo, read-out: Vdss
[7] = Ratio of Cmax/Cmin of Atazanavir in Sprague-Dawley rat at 1 ml/kg,iv measured after 24 hrs by UPLC-MS/MS analysis; assay type: ADME; details: in vivo
[8] = AUClast in Sprague-Dawley rat at 1 ml/kg,iv measured upto 24 hrs by UPLC-MS/MS analysis; assay type: ADME; parameters: dose 1 ml/kg, time < 24 hrs, route iv; details: in vivo
[9] = Aqueous stability of the compound in acetate buffer at pH 4 assessed as compound half life measured after 24 hrs by UPLC analysis; assay type: physicochemical; details: buffer, pH 4, 24 h, 24 h
[10] = Relative AUC ratio of Atazanavir in Sprague-Dawley rat at 3 ml/kg,po measured upto 24 hrs by UPLC-MS/MS analysis; assay type: ADME; details: in vivo
[11] = Relative Cmax ratio of Atazanavir in Sprague-Dawley rat at 1 ml/kg,iv measured upto 24 hrs by UPLC-MS/MS analysis; assay type: ADME; details: in vivo
[12] = Fold ratio of total AUC of Atazanavir in Sprague-Dawley rat at 1 ml/kg,iv measured upto 24 hrs by UPLC-MS/MS analysis; assay type: ADME; details: in vivo
[13] = Ratio of Cmax/Cmin of Atazanavir in Sprague-Dawley rat at 3 ml/kg,po measured after 24 hrs by UPLC-MS/MS analysis; assay type: ADME; details: in vivo
[14] = Relative AUC ratio of Atazanavir in Sprague-Dawley rat at 30 ml/kg,po measured upto 24 hrs by UPLC-MS/MS analysis; assay type: ADME; details: in vivo
[15] = Clearance in Sprague-Dawley rat at 1 ml/kg,iv measured upto 24 hrs by UPLC-MS/MS analysis; assay type: ADME; details: in vivo
[16] = Ratio of AUC of Atazanavir in Sprague-Dawley rat at 3 ml/kg,po measured upto 24 hrs by UPLC-MS/MS analysis; assay type: ADME; details: in vivo
[17] = Tmax in Sprague-Dawley rat at 3 ml/kg,po measured upto 24 hrs by UPLC-MS/MS analysis; assay type: ADME; details: Sprague-Dawley, in vivo, read-out: Tmax
[18] = Ratio of AUC of Atazanavir in Sprague-Dawley rat at 30 ml/kg,po measured upto 24 hrs by UPLC-MS/MS analysis; assay type: ADME; details: in vivo
[19] = Relative Cmax ratio of Atazanavir in Sprague-Dawley rat at 3 ml/kg,po measured upto 24 hrs by UPLC-MS/MS analysis; assay type: ADME; details: in vivo
[20] = Half life in Sprague-Dawley rat at 1 ml/kg,iv measured upto 24 hrs by UPLC-MS/MS analysis; assay type: ADME; details: in vivo
[21] = Fold ratio of total AUC of Atazanavir in Sprague-Dawley rat at 3 ml/kg,po measured upto 24 hrs by UPLC-MS/MS analysis; assay type: ADME; details: in vivo
[22] = Ratio of AUC of Atazanavir in Sprague-Dawley rat at 1 ml/kg,iv measured upto 24 hrs by UPLC-MS/MS analysis; assay type: ADME; details: in vivo
[23] = Relative AUC ratio of Atazanavir in Sprague-Dawley rat at 1 ml/kg,iv measured upto 24 hrs by UPLC-MS/MS analysis; assay type: ADME; details: in vivo
[24] = Relative Cmax ratio of Atazanavir in Sprague-Dawley rat at 30 ml/kg,po measured upto 24 hrs by UPLC-MS/MS analysis; assay type: ADME; details: in vivo
[25] = AUClast in Sprague-Dawley rat at 30 ml/kg,po measured upto 24 hrs by UPLC-MS/MS analysis; assay type: ADME; parameters: time < 24 hrs, dose 30 ml/kg, route po; details: in vivo
[26] = Tmax in Sprague-Dawley rat at 30 ml/kg,po measured upto 24 hrs by UPLC-MS/MS analysis; assay type: ADME; details: in vivo
[27] = Aqueous solubility of compound at pH 4 by UPLC analysis; assay type: physicochemical; details: buffer
[28] = Cmax in Sprague-Dawley rat at 3 ml/kg,po measured upto 24 hrs by UPLC-MS/MS analysis; assay type: ADME; parameters: dose 3 ml/kg, time < 24 hrs, route po; details: Sprague-Dawley, in vivo, 3 ml/kg
[29] = Aqueous stability of the compound in phosphate buffer at pH 6.5 assessed as compound half life measured after 24 hrs by UPLC analysis; assay type: physicochemical; details: buffer, pH 6.5, 24 h, 24 h
[30] = Cmax in Sprague-Dawley rat at 1 ml/kg,iv measured upto 24 hrs by UPLC-MS/MS analysis; assay type: ADME; parameters: dose 1 ml/kg, time < 24 hrs, route iv; details: in vivo

Question: What does the source list for COC(=O)N[C@H](C(=O)N[C@@H](Cc1ccccc1)[C@H](CN(Cc1ccc(-c2ccccn2)cc1)NC(=O)[C@@H](NC(=O)OC)C(C)(C)C)OC(=O)OC(OC(=O)[C@@H](NC(=O)[C@H](N)C(C)C)C(C)C)C(C)C)C(C)(C)C (stereo in doubt; 6h)?
Answer: solubility [1]: > 2000 µg/mL; Ratio [2]: 5.8; Cmax [3]: 4.13 µM; AUC(0-t) at 24 h [4]: 40.1 µM·h; Ratio [5]: 3.56; Vd [6]: 1 L/kg; Ratio [7]: 22.8; AUC(0-t) at 24 h [8]: 10.5 µM·h; t1/2 [9]: 334.3 h; Ratio [10]: 7.3; Ratio [11]: 0.11; Ratio [12]: 18.8; Ratio [13]: 6.4; Ratio [14]: 0.29; clearance [15]: 2 mL/min/kg; Ratio [16]: 14.4; Tmax [17]: 3 h; Ratio [18]: 11.46; Ratio [19]: 1; half-life [20]: 7 h; Ratio [21]: 111.7; Ratio [22]: 7.31; Ratio [23]: 2.3; Ratio [24]: 0.08; AUC(0-t) at 24 h [25]: 68.3 µM·h; Tmax [26]: 3 h; solubility [27]: > 1300 µg/mL; Cmax [28]: 3.06 µM; t1/2 [29]: 9.2 h; Cmax [30]: 2.18 µM
